In PubChem BioAssay (NCI) one finds GI50 and TGI data, which are given here for 8 compounds.

Values joined by “and” are separate entries in the source; they are usually repeats but may differ in a detail not shown here. Equal entries are not always repeated.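 In this assay, cells in 96-well plates receive the compound at five concentrations for 48 hours. Endpoints are linearly interpolated between the surrounding concentrations. GI50 is the concentration that inhibits growth by half. TGI: total growth inhibition.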

Test systems include XF 498 CNS; DMS 273 small cell lung; HOP-18 NSCLC; SNB-78 CNS; RXF-631 renal; M19-MEL melanoma; KM20L2 colon; MDA-N; SN12K1 renal; P388 leukemia; DMS 114 small cell lung.
Assay in all cases: NCI tumour cell line growth inhibition, 48 h

`OCC(O)CC[CH2][Sn]([c]1ccccc1)([c]1ccccc1)[c]1ccccc1` (stereo not drawn): the GI50 is 19.5 µM in the assay on XF 498 CNS; 14.3 µM with DMS 273 small cell lung; 24.9 µM in the assay on HOP-18 NSCLC; 19.6 µM in the assay on SNB-78 CNS; 13.6 µM in the assay with RXF-631 renal; 17.1 µM with M19-MEL melanoma. In addition, the GI50 with KM20L2 colon is 19.4 µM. The TGI with XF 498 CNS turned out to be 35.9 µM; in the assay with DMS 273 small cell lung, 29.6 µM; in the assay on HOP-18 NSCLC, 39.7 µM; in the assay with SNB-78 CNS, 41.3 µM; with RXF-631 renal it was 28.7 µM; in the assay on M19-MEL melanoma, 31.1 µM. In addition, the TGI in the assay on KM20L2 colon worked out at 34.7 µM.
As for `COC1/C=C/O[C@@]2(C)Oc3c(C)c(O)c4c(O)c(cc(O)c4c3C2=O)NC(=O)/C(C)=C\C=C\[C@H](C)C(O)[C@@H](C)[C@@H](O)[C@@H](C)[C@H](OC(C)=O)[C@@H]1C` (stereo partly drawn), the TGI in the assay with XF 498 CNS was 29.3 µM; with DMS 273 small cell lung, 32.7 µM; in the assay with HOP-18 NSCLC, 38.8 µM; in the assay on SNB-78 CNS, 95 µM; in the assay on M19-MEL melanoma it was 26.1 µM; in the assay on MDA-N it was 39.9 µM and 27.8 µM. Further, the TGI came to 33.5 µM in the assay on SN12K1 renal, 31.2 µM in the assay on P388 leukemia, 30.5 µM with KM20L2 colon and 20.6 µM in the assay on DMS 114 small cell lung. The GI50 with MDA-N is 19.2 µM.
Turning to `CC(C)(C)c1nc2c(o1)C(=Nc1ccccc1)c1ccccc1C2=O`, the TGI turned out to be 9.66 µM in the assay with XF 498 CNS; 11.3 µM in the assay with DMS 273 small cell lung; 20.9 µM with HOP-18 NSCLC; 43.7 µM in the assay with SNB-78 CNS; 51.9 µM with RXF-631 renal; 2.32 µM in the assay on M19-MEL melanoma. In addition, the TGI with KM20L2 colon amounted to 85.8 µM.
Regarding `Cc1c(Cl)cccc1NC(=O)CC1Sc2ccccc2NC1=O` (stereo not drawn), the TGI in the assay with XF 498 CNS was 68.9 µM and 50.2 µM; with DMS 273 small cell lung, over 100 µM; in the assay on HOP-18 NSCLC, 32.7 µM and 31.5 µM; with SNB-78 CNS, 99 µM and > 100 µM; in the assay with RXF-631 renal, > 100 µM and 57.5 µM; in the assay with M19-MEL melanoma, over 100 µM. Also, the TGI is 8.28 µM in the assay with MDA-N; > 85.9 µM and 55 µM with KM20L2 colon; over 100 µM with DMS 114 small cell lung. Besides, the GI50 is 10.6 µM and 26 µM in the assay with DMS 273 small cell lung; 44.5 µM and 21 µM with RXF-631 renal.
As for `CCc1nc2c(O)ccc(O)c2nc1C`, the TGI was 39.4 µM with XF 498 CNS; 37 µM in the assay on DMS 273 small cell lung; 35.3 µM in the assay on HOP-18 NSCLC; 62.6 µM with SNB-78 CNS; 34.3 µM in the assay with RXF-631 renal; 19.4 µM in the assay on M19-MEL melanoma. Moreover, the TGI came to 34 µM in the assay with KM20L2 colon and 36.1 µM in the assay on DMS 114 small cell lung.
As for `COc1ccc(OC)c(/C=C/[N+](=O)[O-])c1`, the TGI with XF 498 CNS was 7.02 µM; with DMS 273 small cell lung it was 6.99 µM; with HOP-18 NSCLC it was 3.85 µM; in the assay with SNB-78 CNS, 58.8 µM; in the assay on RXF-631 renal, 10.3 µM; in the assay on M19-MEL melanoma, 5.96 µM. Besides, the TGI with MDA-N came to 25.3 µM; in the assay with KM20L2 colon, 9.34 µM; with DMS 114 small cell lung, 11.9 µM.
Take `CS(=O)(=O)C1S(=O)(=O)OCCOS1(=O)=O`: the TGI in the assay with XF 498 CNS, in the assay with DMS 273 small cell lung, in the assay with HOP-18 NSCLC, in the assay on SNB-78 CNS, in the assay on RXF-631 renal and in the assay on M19-MEL melanoma was over 100 µM each time. The TGI in the assay with KM20L2 colon and with DMS 114 small cell lung was over 100 µM throughout.
For `O=C(Cn1ccnc1[N+](=O)[O-])N(CCO)CCO`, the TGI in the assay with XF 498 CNS is over 58 µM; with DMS 273 small cell lung it was over 1250 µM; in the assay on HOP-18 NSCLC, over 1250 µM; with SNB-78 CNS, over 1250 µM; with M19-MEL melanoma it was over 1250 µM; in the assay with MDA-N it was over 250 µM. The TGI with SN12K1 renal, with P388 leukemia, in the assay with KM20L2 colon and in the assay with DMS 114 small cell lung was over 1250 µM each time.
